# Patent US20140155580A1, “TRANSGENIC AVES PRODUCING HUMAN POLYCLONAL ANTIBODIES” (Synageva BioPharma Corp., priority 2003, published 2014)
# Test system: chicken embryonic stem cells
# Assay: Titration kill curve: cES cells in culture exposed to puromycin or neomycin
# Assay type: cell-based
# Set-up: key to Morphology of cES cells: ES: ES cells are present.; diff: ES cells are differentiated.; gone: no morphologically recognizable cells are present
# Procedure: In a preferred embodiment, the concentration of puromycin required for selecting transfected cells is calculated as a titration kill curve. Titration kill curves for chicken embryonic stem cells are established by exposing cells in culture to puromycin concentrations varying from 0.0 to 1.0 μg/ml for 10 days (Table 7) and neomycin concentrations varying from 0.0 to 200 μg/ml (Table 8). The medium is changed every 2 days and fresh puromycin or neomycin is added. […] Puromycin concentrations of 0.3-1.0 μg/ml are used for selection of the transfected cultures. Neomycin concentrations over 40 μg/ml eliminated all cES cells within 7 days (Table 8).
substance,measurement,setting,value
neomycin,Morphology of cES cells,"neomycin 10 μg/ml, day 1 under selection",ES
same,Morphology of cES cells,"neomycin 10 μg/ml, day 2 under selection",ES
same,Morphology of cES cells,"neomycin 10 μg/ml, day 3 under selection",ES
same,Morphology of cES cells,"neomycin 10 μg/ml, day 4 under selection",ES
same,Morphology of cES cells,"neomycin 10 μg/ml, day 5 under selection",ES
same,Morphology of cES cells,"neomycin 10 μg/ml, day 6 under selection",ES
same,Morphology of cES cells,"neomycin 10 μg/ml, day 7 under selection",ES
same,Morphology of cES cells,"neomycin 10 μg/ml, day 8 under selection",ES
same,Morphology of cES cells,"neomycin 10 μg/ml, day 9 under selection",ES
same,Morphology of cES cells,"neomycin 10 μg/ml, day 10 under selection",ES
same,Morphology of cES cells,"neomycin 20 μg/ml, day 1 under selection",ES
same,Morphology of cES cells,"neomycin 20 μg/ml, day 2 under selection",ES
same,Morphology of cES cells,"neomycin 20 μg/ml, day 3 under selection",ES
same,Morphology of cES cells,"neomycin 20 μg/ml, day 4 under selection",ES
same,Morphology of cES cells,"neomycin 20 μg/ml, day 5 under selection",ES
same,Morphology of cES cells,"neomycin 20 μg/ml, day 6 under selection",ES
same,Morphology of cES cells,"neomycin 20 μg/ml, day 7 under selection",ES
same,Morphology of cES cells,"neomycin 20 μg/ml, day 8 under selection",ES
same,Morphology of cES cells,"neomycin 20 μg/ml, day 9 under selection",ES
same,Morphology of cES cells,"neomycin 20 μg/ml, day 10 under selection",ES
same,Morphology of cES cells,"neomycin 30 μg/ml, day 1 under selection",ES
same,Morphology of cES cells,"neomycin 30 μg/ml, day 2 under selection",ES
same,Morphology of cES cells,"neomycin 30 μg/ml, day 3 under selection",ES
same,Morphology of cES cells,"neomycin 30 μg/ml, day 4 under selection",ES
same,Morphology of cES cells,"neomycin 30 μg/ml, day 5 under selection",ES
same,Morphology of cES cells,"neomycin 30 μg/ml, day 6 under selection",ES
same,Morphology of cES cells,"neomycin 30 μg/ml, day 9 under selection",Diff
same,Morphology of cES cells,"neomycin 40 μg/ml, day 1 under selection",ES
same,Morphology of cES cells,"neomycin 40 μg/ml, day 2 under selection",ES
same,Morphology of cES cells,"neomycin 40 μg/ml, day 3 under selection",ES
same,Morphology of cES cells,"neomycin 40 μg/ml, day 4 under selection",ES
same,Morphology of cES cells,"neomycin 40 μg/ml, day 7 under selection",dead
same,Morphology of cES cells,"neomycin 40 μg/ml, day 8 under selection",gone
same,Morphology of cES cells,"neomycin 40 μg/ml, day 9 under selection",gone
same,Morphology of cES cells,"neomycin 40 μg/ml, day 10 under selection",gone
same,Morphology of cES cells,"neomycin 50 μg/ml, day 1 under selection",ES
same,Morphology of cES cells,"neomycin 50 μg/ml, day 2 under selection",ES
same,Morphology of cES cells,"neomycin 50 μg/ml, day 3 under selection",ES
same,Morphology of cES cells,"neomycin 50 μg/ml, day 8 under selection",gone
same,Morphology of cES cells,"neomycin 50 μg/ml, day 9 under selection",gone
same,Morphology of cES cells,"neomycin 50 μg/ml, day 10 under selection",gone
same,Morphology of cES cells,"neomycin 60 μg/ml, day 1 under selection",ES
same,Morphology of cES cells,"neomycin 60 μg/ml, day 2 under selection",ES
same,Morphology of cES cells,"neomycin 60 μg/ml, day 3 under selection",ES
same,Morphology of cES cells,"neomycin 60 μg/ml, day 4 under selection",gone
same,Morphology of cES cells,"neomycin 60 μg/ml, day 5 under selection",gone
same,Morphology of cES cells,"neomycin 60 μg/ml, day 6 under selection",gone
same,Morphology of cES cells,"neomycin 60 μg/ml, day 7 under selection",gone
same,Morphology of cES cells,"neomycin 60 μg/ml, day 8 under selection",gone
same,Morphology of cES cells,"neomycin 60 μg/ml, day 9 under selection",gone
same,Morphology of cES cells,"neomycin 60 μg/ml, day 10 under selection",gone
same,Morphology of cES cells,"neomycin 100 μg/ml, day 2 under selection",Diff
same,Morphology of cES cells,"neomycin 100 μg/ml, day 3 under selection",dead
same,Morphology of cES cells,"neomycin 100 μg/ml, day 4 under selection",gone
same,Morphology of cES cells,"neomycin 100 μg/ml, day 5 under selection",gone
same,Morphology of cES cells,"neomycin 100 μg/ml, day 6 under selection",gone
same,Morphology of cES cells,"neomycin 100 μg/ml, day 7 under selection",gone
same,Morphology of cES cells,"neomycin 100 μg/ml, day 8 under selection",gone
same,Morphology of cES cells,"neomycin 100 μg/ml, day 9 under selection",gone
same,Morphology of cES cells,"neomycin 100 μg/ml, day 10 under selection",gone
same,Morphology of cES cells,"neomycin 150 μg/ml, day 1 under selection",dead
same,Morphology of cES cells,"neomycin 150 μg/ml, day 2 under selection",dead
same,Morphology of cES cells,"neomycin 150 μg/ml, day 3 under selection",gone
same,Morphology of cES cells,"neomycin 150 μg/ml, day 4 under selection",gone
same,Morphology of cES cells,"neomycin 150 μg/ml, day 5 under selection",gone
same,Morphology of cES cells,"neomycin 150 μg/ml, day 6 under selection",gone
same,Morphology of cES cells,"neomycin 150 μg/ml, day 7 under selection",gone
same,Morphology of cES cells,"neomycin 150 μg/ml, day 8 under selection",gone
same,Morphology of cES cells,"neomycin 150 μg/ml, day 9 under selection",gone
same,Morphology of cES cells,"neomycin 150 μg/ml, day 10 under selection",gone
same,Morphology of cES cells,"neomycin 200 μg/ml, day 1 under selection",dead
same,Morphology of cES cells,"neomycin 200 μg/ml, day 2 under selection",gone
same,Morphology of cES cells,"neomycin 200 μg/ml, day 3 under selection",gone
same,Morphology of cES cells,"neomycin 200 μg/ml, day 4 under selection",gone
same,Morphology of cES cells,"neomycin 200 μg/ml, day 5 under selection",gone
same,Morphology of cES cells,"neomycin 200 μg/ml, day 6 under selection",gone
same,Morphology of cES cells,"neomycin 200 μg/ml, day 7 under selection",gone
same,Morphology of cES cells,"neomycin 200 μg/ml, day 8 under selection",gone
same,Morphology of cES cells,"neomycin 200 μg/ml, day 9 under selection",gone
same,Morphology of cES cells,"neomycin 200 μg/ml, day 10 under selection",gone
same,Time in which all cES cells were eliminated,neomycin concentrations over 40 μg/ml,≤ 7 days
